According to patent US20210403567A1, “METHODS OF TREATING CERVICAL CANCER BY ADMINISTERING A PD-1 INHIBITOR” (priority 2020, published 2021):
Marks after values point to notes of the source that are not given here.

Tests used:
[1] = Phase I expansion cohorts: safety, treatment-emergent adverse events (NCI CTCAE 4.03); type: in vivo, human
Protocol: The combination therapy cohort enrolled patients for whom palliative hfRT was planned to a lesion that was causing some signs or symptoms. The radiated lesion was not followed as a target lesion for response assessments.
Assessments: Tumor histology was assessed per local pathology reports of tumor samples obtained at any time prior to study enrollment. […] Extensive safety evaluations were performed during screening and on Day 1 of each subsequent treatment cycle throughout the study. Routine safety evaluations were performed at each cemiplimab dosing visit. Tumor response assessments were performed by investigators, per RECIST 1.1, at the end of each 8-week treatment cycle. In combination therapy cohorts, the lesions selected for hfRT were not included in RECIST 1.1 assessments.
Statistical analysis of clinical data: The safety summaries and analyses were performed on the safety analysis set. Data were summarized using descriptive statistics, along with two-sided 95% confidence interval (CI), by dose cohort. Continuous variables were summarized with mean, median, standard deviation, minimum, and maximum. Categorical variables were summarized with frequency and percentage. Kaplan-Meier analysis was performed for progression-free survival (PFS) and OS.

[2] = tested on: recurrent or metastatic cervical cancer; test: Phase 3 trial, cemiplimab versus IC chemotherapy: quality of life, EORTC QLQ-C30 (GHS/QoL, functioning and symptom scales), MMRM LS mean change from baseline; type: in vivo, human; conditions: for Overall difference in LS mean change from baseline (95% CI), GHS/QoL / Overall difference in LS mean change from baseline (95% CI), Physical functioning / Overall difference in LS mean change from baseline (95% CI), Role functioning: EORTC QLQ-C30, positive numbers favor cemiplimab; for Overall difference in LS mean change from baseline (95% CI), GHS/QoL / Overall difference in LS mean change from baseline (95% CI), Physical functioning / Overall difference in LS mean change from baseline (95% CI), Role functioning / Overall difference in LS mean change from baseline (95% CI), Appetite loss / Overall difference in LS mean change from baseline (95% CI), Fatigue / Overall difference in LS mean change from baseline (95% CI), Pain: cemiplimab minus chemotherapy; for Overall difference in LS mean change from baseline (95% CI), Appetite loss / Overall difference in LS mean change from baseline (95% CI), Fatigue / Overall difference in LS mean change from baseline (95% CI), Pain: EORTC QLQ-C30 symptom scale, negative numbers favor cemiplimab; for Difference in LS mean change, Cemiplimab versus Chemotherapy, GHS/QoL / Difference in LS mean change, Cemiplimab versus Chemotherapy, Physical Functioning / LS mean change from baseline, EORTC QLQ-C30 GHS/QoL / LS mean change from baseline, EORTC QLQ-C30 Physical Functioning: SCC patients
Protocol: QOL is measured by the EORTC QLQ-C30.
Quality of Life Questionnaires: Patient-reported outcomes are measured using the validated patient self-administered EORTC QLQ-C30 questionnaire. Patients are asked to complete these questionnaires prior to any study procedures being performed at a given study visit (during the on-study/treatment and follow-up periods).
QoL: Longitudinal change from baseline at each PRO assessment in the GHS/QoL and PF scales was analyzed using a mixed model with repeated measures (MMRM). Higher scores on these scales indicate better health status/function. […] The model generated least squares (LS) mean estimates, standard errors, 95% CIs and p-values (where applicable) for mean changes from baseline on each PRO assessment.
At baseline and Day 1 of each treatment cycle (up to 16), patients were administered the EORTC QLQ-030. Mixed-effects repeated measures models estimated least squares (LS) mean change from baseline across all scales. Responder analyses determined the proportions with clinically meaningful (using 10-point threshold) improvement or deterioration, or stability on QLQ-030.

With cemiplimab the “Treatment-related TEAEs (Grade 3)” value ([1]; 1/10) was 10%, the “Treatment-related TEAE: Any” value ([1]; Grade ≥ 3, n = 10 per cohort) was 1 n (%) and the “Treatment-related TEAE: Diarrhea” value ([1]; Grade ≥ 3, n = 10 per cohort) was 0 n (%). The “Treatment-related TEAE: Fatigue” value ([1]; Grade ≥ 3, n = 10 per cohort) was 1 n (%), the “Treatment-related TEAE: Hyponatremia” value ([1]; Grade ≥ 3, n = 10 per cohort) was 0 n (%) and the “Treatment-related TEAE: Hypothyroidism” value ([1]; Grade ≥ 3, n = 10 per cohort) was 0 n (%). For the same substance, the “Treatment-related TEAE: Myalgia” value ([1]; Grade ≥ 3, n = 10 per cohort) was 1 n (%), the “Treatment-related TEAE: Pneumonitis” value ([1]; Grade ≥ 3, n = 10 per cohort) was 0 n (%) and the “Treatment-related TEAE: Any” value ([1]; any grade, n = 10 per cohort) was 7 n (%). For the same substance, the “Treatment-related TEAE: Diarrhea” value ([1]; any grade, n = 10 per cohort) was 2 n (%), the “Treatment-related TEAE: Fatigue” value ([1]; any grade, n = 10 per cohort) was 3 n (%) and the “Treatment-related TEAE: Hyponatremia” value ([1]; any grade, n = 10 per cohort) was 1 n (%). For the same substance, the “Treatment-related TEAE: Hypothyroidism” value ([1]; any grade, n = 10 per cohort) was 2 n (%), the “Treatment-related TEAE: Myalgia” value ([1]; any grade, n = 10 per cohort) was 1 n (%) and the “Treatment-related TEAE: Pneumonitis” value ([1]; any grade, n = 10 per cohort) was 1 n (%). For the same substance, the TEAE fatigue ([1]; both cohorts combined (5/20)) was 25%, the TEAE hypokalemia ([1]; both cohorts combined (5/20)) was 25% and the TEAE diarrhea ([1]; both cohorts combined (7/20)) was 35%. The “patients who experienced grade TEAEs” value ([1]; four patients of 10 per cohort) was 40.0%, the “TEAEs of any grade, regardless of treatment attribution” value ([1]; n = 10 per cohort) was 9 patients and the “discontinued treatment due to TEAEs” value ([1]; n = 10 per cohort) was “No patients”. The “Overall difference in LS mean change from baseline (95% CI), GHS/QoL” value ([2]; AC (post-hoc)) was 2.0 (−5.4; 9.3), the “Overall difference in LS mean change from baseline (95% CI), Physical functioning” value ([2]; AC (post-hoc)) was 2.6 (−4.3; 9.5) and the “Overall difference in LS mean change from baseline (95% CI), Role functioning” value ([2]; AC (post-hoc)) was 8.3 (−0.0; 16.6). The “Overall difference in LS mean change from baseline (95% CI), GHS/QoL” value ([2]; Overall population) was 7.8 (3.3; 12.3)*, the “Overall difference in LS mean change from baseline (95% CI), Physical functioning” value ([2]; Overall population) was 8.3 (4.3; 12.2)* and the “Overall difference in LS mean change from baseline (95% CI), Role functioning” value ([2]; Overall population) was 13.1 (8.3; 17.9)^‡. The “Overall difference in LS mean change from baseline (95% CI), GHS/QoL” value ([2]; SCC) was 8.5 (3.8; 13.2)^†, the “Overall difference in LS mean change from baseline (95% CI), Physical functioning” value ([2]; SCC) was 8.4 (4.1; 12.6)^† and the “Overall difference in LS mean change from baseline (95% CI), Role functioning” value ([2]; SCC) was 11.4 (6.3; 16.6)^‡. For the same substance, the “Overall difference in LS mean change from baseline (95% CI), Appetite loss” value ([2]; AC (post-hoc)) was −5.9 (−19.8; 2.4), the “Overall difference in LS mean change from baseline (95% CI), Fatigue” value ([2]; AC (post-hoc)) was −5.9 (−13.9; 2.2) and the “Overall difference in LS mean change from baseline (95% CI), Pain” value ([2]; AC (post-hoc)) was −7.6 (−17.1; 1.9). For the same substance, the “Overall difference in LS mean change from baseline (95% CI), Appetite loss” value ([2]; Overall population) was −11.3 (−16.6; −6.0)^‡, the “Overall difference in LS mean change from baseline (95% CI), Fatigue” value ([2]; Overall population) was −9.1 (−14.1; −4.0)^‡ and the “Overall difference in LS mean change from baseline (95% CI), Pain” value ([2]; Overall population) was −10.2 (−16.2; −4.3)^‡. The “Overall difference in LS mean change from baseline (95% CI), Appetite loss” value ([2]; SCC) was −10.9 (−16.6; −5.2)^‡, the “Overall difference in LS mean change from baseline (95% CI), Fatigue” value ([2]; SCC) was −8.6 (−14.0; −3.3)^‡ and the “Overall difference in LS mean change from baseline (95% CI), Pain” value ([2]; SCC) was −10.4 (−16.9; −3.8)^‡. For the same substance, the “Difference in LS mean change, Cemiplimab versus Chemotherapy, GHS/QoL” value ([2]; C2D1) was 4.14, the “Difference in LS mean change, Cemiplimab versus Chemotherapy, Physical Functioning” value ([2]; C2D1) was 4.09 and the “LS mean change from baseline, EORTC QLQ-C30 GHS/QoL” value ([2]; C2D1) was −2.02. The “LS mean change from baseline, EORTC QLQ-C30 Physical Functioning” value ([2]; C2D1) was −1.82, the “Difference in LS mean change, Cemiplimab versus Chemotherapy, GHS/QoL” value ([2]; C3D1) was 9.41 and the “Difference in LS mean change, Cemiplimab versus Chemotherapy, Physical Functioning” value ([2]; C3D1) was 7.33. The “LS mean change from baseline, EORTC QLQ-C30 GHS/QoL” value ([2]; C3D1) was 1.18, the “LS mean change from baseline, EORTC QLQ-C30 Physical Functioning” value ([2]; C3D1) was 2.10 and the “Difference in LS mean change, Cemiplimab versus Chemotherapy, GHS/QoL” value ([2]; C4D1) was 12.36. The “Difference in LS mean change, Cemiplimab versus Chemotherapy, Physical Functioning” value ([2]; C4D1) was 10.41, the “LS mean change from baseline, EORTC QLQ-C30 GHS/QoL” value ([2]; C4D1) was 5.15 and the “LS mean change from baseline, EORTC QLQ-C30 Physical Functioning” value ([2]; C4D1) was 5.21. The “Difference in LS mean change, Cemiplimab versus Chemotherapy, GHS/QoL” value ([2]; C5D1) was 6.94, the “Difference in LS mean change, Cemiplimab versus Chemotherapy, Physical Functioning” value ([2]; C5D1) was 6.86 and the “LS mean change from baseline, EORTC QLQ-C30 GHS/QoL” value ([2]; C5D1) was 0.85. For the same substance, the “LS mean change from baseline, EORTC QLQ-C30 Physical Functioning” value ([2]; C5D1) was −0.17, the “Difference in LS mean change, Cemiplimab versus Chemotherapy, GHS/QoL” value ([2]; C6D1) was 6.83 and the “Difference in LS mean change, Cemiplimab versus Chemotherapy, Physical Functioning” value ([2]; C6D1) was 7.11. The “LS mean change from baseline, EORTC QLQ-C30 GHS/QoL” value ([2]; C6D1) was −0.17.
